# Laboratory results published in publication PMC3306502 (Cancer research, 2012).
# Tests used:
# [1] = steady-state plasma- and brain-tissue levels in mice; conditions: 10 mg/kg/day; for Brain C24hr / Plasma C24hr: 28d daily-dosing; for Brain C24hr: 24h after final-dose; for Plasma C24hr: 24h after final-dose (brain study); for Kp: mouse, brain
# AR-regulated genes = experiment: qRT-PCR analysis of AR-regulated genes in LNCaP/AR; conditions: absence of R1881; up to 10 μM
# [2] = tested on: LNCaP/AR(cs) xenograft tumors; experiment: LNCaP/AR; conditions: for tumors with >50% regression (volume): 10 mg/kg/day daily-gavage
# CRPC [3] = conditions: chemotherapy-naïve and -treated CRPC patients; cited from earlier work
# [4] = steady-state plasma and tumor-tissue concentrations in LNCaP/AR; conditions: for Plasma C24hr / Tumor C24hr: 28d dosing, mean ± SD; for Plasma C24hr: 24h after final dose; for Tumor C24hr: LNCaP/AR(cs) xenograft tumor-tissue; for Kp: mouse, tumor, oral
# [5] = tested on: LNCaP/AR-luc xenograft tumors; experiment: luciferase-imaging of LNCaP/AR-luc xenograft tumors in castrate male mice; conditions: 10 mg/kg/day oral, 17 days
# LNCaP/AR tumors = experiment: Ki67 IHC and TUNEL-staining of LNCaP/AR tumor-tissue from castrate mice; conditions: 10 mg/kg/day, 25d
# VCaP cells = experiment: VCaP proliferation assay; conditions: 7d treatment; for VCaP proliferation, antagonist-mode: with 30pM R1881; for VCaP proliferation, agonist-mode: without R1881
# prostate and epididymis = conditions: 10 mg/kg/day for 28 days
# [6] = tested on: PC-3 prostate cancer cells; experiment: growth of AR-negative PC-3 cells
# AR = AR binding-assay using MDA-MB-453 cell-extracts
# LNCaP/AR(cs) xenografts = experiment: LNCaP/AR; conditions: 28d, intact (non-castrate) mice
# CRPC [7] = conditions: plus prednisone; CRPC patients previously treated with docetaxel; cited from earlier work
structure (smiles),measurement,setting,value
"CNC(=O)c1ccc(N2C(=S)N(c3ccc(C#N)c(C(F)(F)F)c3)C(=O)C2(C)C)cc1F [MDV3100, reference compound]",Brain C24hr,[1],2.01 ± 0.83 µg/g
same,Plasma C24hr,[1],10500 ± 2300 ng/mL
same,Kp,[1],0.188 ± 0.044
same,agonist activity on AR-regulated gene expression,AR-regulated genes,did not exhibit agonist activity
same,animals with >50% reduction in tumor-volume,"[2]; 30 mg/kg/day, day 28, castrate mice",3 of 19
same,animals with >50% reduction in tumor-volume,"[2]; mouse, in vivo",12/19
same,optimal biological dose (OBD: lowest dose yielding maximum efficacy),"[2]; mouse, in vivo",30–100 mg/kg/day
same,patients with significant serum-PSA responses (>50% decrease),CRPC [3],> 50%
same,Plasma C24hr,[4]; 1 mg/kg/day,1080 ± 260 ng/mL
same,Tumor C24hr,[4]; 1 mg/kg/day,0.439 ± 0.12 µg/g
same,Plasma C24hr,[4]; 10 mg/kg/day,11000 ± 2500 ng/mL
same,Tumor C24hr,[4]; 10 mg/kg/day,3.39 ± 1.50 µg/g
CNC(=O)c1ccc(N2C(=S)N(c3cnc(C#N)c(C(F)(F)F)c3)C(=O)C23CCC3)cc1F [ARN-509],Brain C24hr,[1],0.479 ± 0.132 µg/g
same,Plasma C24hr,[1],1640 ± 300 ng/mL
same,Kp,[1],0.293 ± 0.063
same,"androgen-driven luciferase reporter-gene activity normalized to tumor volume, vs vehicle",[5],consistently reduced
same,increase in apoptotic rate (TUNEL) versus vehicle,LNCaP/AR tumors,10 fold
same,oral bioavailability,dog pharmacokinetics,high
same,plasma half-life,dog pharmacokinetics,long
same,"VCaP proliferation, antagonist-mode",VCaP cells,antagonized the proliferative effect of R1881
same,"VCaP proliferation, agonist-mode",VCaP cells,fails to stimulate proliferation
same,apoptotic-rate in dog prostates (TUNEL-staining),prostate and epididymis,no change in apoptotic-rate
same,epididymis histopathology / spermatozoa,prostate and epididymis,contained minimal spermatozoa
same,prostate histopathology,prostate and epididymis,lack of glandular secretory activity
same,reduction in epididymis weight,prostate and epididymis; not statistically significant,1.7 fold
same,reduction in weight of dog prostates,prostate and epididymis; p<0.05 vs vehicle,3 fold
same,agonist activity on AR-regulated gene expression,AR-regulated genes,did not exhibit agonist activity
same,effect on growth of AR-negative PC-3 cells,[6],no significant effect on growth
same,tumors with >50% regression (volume),"[2]; day 28, castrate mice",8/10
same,tumors no longer palpable,"[2]; 10 mg/kg/day, day 28, of 10 tumors",2
same,animals with >50% reduction in tumor-volume,"[2]; 100 mg/kg/day, day 28, castrate mice",13/19
same,optimal biological dose (OBD: lowest dose yielding maximum efficacy),[2]; LNCaP/AR model,10–30 mg/kg/day
same,oral bioavailability,mouse pharmacokinetics,high
same,plasma half-life,mouse pharmacokinetics,long
same,Plasma C24hr,[4]; 1 mg/kg/day,425 ± 160 ng/mL
same,Tumor C24hr,[4]; 1 mg/kg/day,0.991 ± 0.30 µg/g
same,Plasma C24hr,[4]; 10 mg/kg/day,3310 ± 980 ng/mL
same,Tumor C24hr,[4]; 10 mg/kg/day,3.26 ± 0.82 µg/g
same,Kp,[4]; 1 mg/kg/day,2.59 ± 0.11
same,Kp,[4]; 10 mg/kg/day,1.07 ± 0.44
same,"AR binding in cell-extracts, ARN-509 vs bicalutamide",AR,does not differentiate between ARN-509 and bicalutamide
same,anti-tumor effect,LNCaP/AR(cs) xenografts; 10 mg/kg/day,largely confined to stabilization of tumor-growth
same,animals with robust tumor-regression (>50% reduction in starting tumor volume),LNCaP/AR(cs) xenografts; 30 mg/kg/day,6/8
CC(=O)O[C@H]1CC[C@@]2(C)C(=CC[C@@H]3[C@@H]2CC[C@]2(C)C(c4cccnc4)=CC[C@@H]32)C1 [abiraterone acetate],increase in overall survival over control (prednisone only),CRPC [7],3.9 months
"CC(O)(CS(=O)(=O)c1ccc(F)cc1)C(=O)Nc1ccc(C#N)c(C(F)(F)F)c1 (stereo not drawn) [bicalutamide, reference compound]","VCaP proliferation, antagonist-mode",VCaP cells,only partially antagonized the effects of R1881
same,"VCaP proliferation, agonist-mode",VCaP cells,induced cell-proliferation in a dose-dependent manner
same,agonist activity on AR-regulated gene expression,AR-regulated genes,altered gene-expression consistent with its well-documented agonist activity
same,tumors with >50% regression (volume),"[2]; day 28, castrate mice",1/10
